Assay results: PubChem BioAssay AID1963425 (Molecular Pharmacology Branch, DTP, NCI, 2024)

Tested on: 323965-272-R-J2-PDC complex spheroid growth, % test/control
Assay: Anticancer human tumor 323965-272-R-J2-PDC patient-derived pancreatic carcinoma cell line growth inhibition [Asc]
Conditions: for IC50: curve of first compound; for viability, T/C: stronger effect = lower value
In short: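 Complex solid-tumor spheroids incorporating human endothelial and mesenchymal stem cells received single agents or combinations over half-log dilution ranges anchored to clinical Cmax.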

[1] = second compound 0.0316 µM, first compound 0.0316 µM
[2] = second compound 0.0316 µM, first compound 0.1 µM
[3] = second compound 0.0316 µM, first compound 0.316 µM
[4] = second compound 0.0316 µM, first compound 1 µM
[5] = second compound 0.0316 µM, first compound 3.16 µM
[6] = second compound 0.0316 µM, first compound 10 µM
[7] = second compound 0.1 µM, first compound 0.0316 µM
[8] = second compound 0.1 µM, first compound 0.1 µM
[9] = second compound 0.1 µM, first compound 0.316 µM
[10] = second compound 0.1 µM, first compound 1 µM
[11] = second compound 0.1 µM, first compound 3.16 µM
[12] = second compound 0.1 µM, first compound 10 µM
[13] = second compound 0.316 µM, first compound 0.0316 µM
[14] = second compound 0.316 µM, first compound 0.1 µM
[15] = second compound 0.316 µM, first compound 0.316 µM
[16] = second compound 0.316 µM, first compound 1 µM
[17] = second compound 0.316 µM, first compound 3.16 µM
[18] = second compound 0.316 µM, first compound 10 µM
[19] = second compound 1 µM, first compound 0.0316 µM
[20] = second compound 1 µM, first compound 0.1 µM
[21] = second compound 1 µM, first compound 0.316 µM
[22] = second compound 1 µM, first compound 1 µM
[23] = second compound 1 µM, first compound 3.16 µM
[24] = second compound 1 µM, first compound 10 µM
[25] = second compound 3.16 µM, first compound 0.0316 µM
[26] = second compound 3.16 µM, first compound 0.1 µM
[27] = second compound 3.16 µM, first compound 0.316 µM
[28] = second compound 3.16 µM, first compound 1 µM
[29] = second compound 3.16 µM, first compound 3.16 µM
[30] = second compound 3.16 µM, first compound 10 µM
[31] = second compound 10 µM, first compound 0.0316 µM
[32] = second compound 10 µM, first compound 0.1 µM
[33] = second compound 10 µM, first compound 0.316 µM
[34] = second compound 10 µM, first compound 1 µM
[35] = second compound 10 µM, first compound 3.16 µM
[36] = second compound 10 µM, first compound 10 µM
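Note: compound exposure lasted 7 days starting three days after spheroid seeding.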
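Throughout, for viability, T/C: 100% = DMSO vehicle control wells with viability set relative to vehicle.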

`C=C(F)C(=O)N1CCN(c2nc(OCC3CCCN3C)nc3c2CCN(c2cccc4cccc(Cl)c24)C3)CC1CC#N` (stereo unspecified) + Cc1c(S(C)(=O)=O)c(-c2cc(F)cc(N3CCN(c4ccc(NS(=O)(=O)c5ccc(NC(CCN6CCC(C(=O)OCCCP(=O)(O)O)CC6)CSc6ccccc6)c(S(=O)(=O)C(F)(F)F)c5)cc4)CC3)c2)c(-c2ccc(Cl)cc2)n1C(C)C gave an IC50 (second compound 0.0316 µM) of 4.34 µM, an IC50 (second compound 0.1 µM) of 4.22 µM and an IC50 (second compound 0.316 µM) of 3.72 µM. The IC50 (second compound 1 µM) was 3.41 µM, the IC50 (second compound 3.16 µM) was < 0.0316 µM and the IC50 (second compound 10 µM) was < 0.0316 µM. For the same compound, the viability, T/C [1] was 70.5%, the viability, T/C [2] was 62.3% and the viability, T/C [3] was 59.3%. The viability, T/C [4] was 62.1%, the viability, T/C [5] was 75% and the viability, T/C [6] was 8.41%. It also gave a viability, T/C [7] of 69.7%, a viability, T/C [8] of 61.2% and a viability, T/C [9] of 60.1%. For the same compound, the viability, T/C [10] was 66.7%, the viability, T/C [11] was 72.2% and the viability, T/C [12] was 2.28%. The viability, T/C [13] was 62.3%, the viability, T/C [14] was 52.4% and the viability, T/C [15] was 54.4%. The viability, T/C [16] was 62.2%, the viability, T/C [17] was 60.1% and the viability, T/C [18] was 0.32%. It also gave a viability, T/C [19] of 56%, a viability, T/C [20] of 50.8% and a viability, T/C [21] of 51.3%. For the same compound, the viability, T/C [22] was 55.1%, the viability, T/C [23] was 54.1% and the viability, T/C [24] was 0.2%. For the same compound, the viability, T/C [25] was 51.4%, the viability, T/C [26] was 41.2% and the viability, T/C [27] was 45%. For the same compound, the viability, T/C [28] was 41.8%, the viability, T/C [29] was 36.8% and the viability, T/C [30] was 0.16%. It also gave a viability, T/C [31] of 44.1%, a viability, T/C [32] of 43.5% and a viability, T/C [33] of 34.5%. It also gave a viability, T/C [34] of 41.4%, a viability, T/C [35] of 34.4% and a viability, T/C [36] of 0.16%.
With `C=CC(=O)N1CCN(c2nc(=O)n(-c3c(C)ccnc3C(C)C)c3nc(-c4c(O)cccc4F)c(F)cc23)C(C)C1` (stereo unspecified) + Cc1c(S(C)(=O)=O)c(-c2cc(F)cc(N3CCN(c4ccc(NS(=O)(=O)c5ccc(NC(CCN6CCC(C(=O)OCCCP(=O)(O)O)CC6)CSc6ccccc6)c(S(=O)(=O)C(F)(F)F)c5)cc4)CC3)c2)c(-c2ccc(Cl)cc2)n1C(C)C the IC50 (second compound 0.0316 µM) was > 10 µM, the IC50 (second compound 0.1 µM) was > 10 µM and the IC50 (second compound 0.316 µM) was > 10 µM. The IC50 (second compound 1 µM) was > 10 µM, the IC50 (second compound 3.16 µM) was 0.0793 µM and the IC50 (second compound 10 µM) was < 0.0316 µM. The viability, T/C [1] was 82.1%, the viability, T/C [2] was 64.8% and the viability, T/C [3] was 65.9%. For the same compound, the viability, T/C [4] was 62.3%, the viability, T/C [5] was 63.7% and the viability, T/C [6] was 67%. For the same compound, the viability, T/C [7] was 74.3%, the viability, T/C [8] was 64.4% and the viability, T/C [9] was 68%. For the same compound, the viability, T/C [10] was 64.2%, the viability, T/C [11] was 66.7% and the viability, T/C [12] was 56.8%. It also gave a viability, T/C [13] of 76.8%, a viability, T/C [14] of 60.1% and a viability, T/C [15] of 56.1%. It also gave a viability, T/C [16] of 59%, a viability, T/C [17] of 58.6% and a viability, T/C [18] of 53.5%. It also gave a viability, T/C [19] of 65.3%, a viability, T/C [20] of 59.5% and a viability, T/C [21] of 57%. It also gave a viability, T/C [22] of 54.5%, a viability, T/C [23] of 61.4% and a viability, T/C [24] of 46%. The viability, T/C [25] was 62.2%, the viability, T/C [26] was 47.4% and the viability, T/C [27] was 43.2%. The viability, T/C [28] was 38.4%, the viability, T/C [29] was 43.8% and the viability, T/C [30] was 44%. It also gave a viability, T/C [31] of 48.2%, a viability, T/C [32] of 40.9% and a viability, T/C [33] of 39.7%. For the same compound, the viability, T/C [34] was 40.5%, the viability, T/C [35] was 44.9% and the viability, T/C [36] was 39%.
In the case of `CCN1C(C(=O)NC23CCC(C(=O)O)(CC2)CC3)C(c2cccc(Cl)c2F)C2(C(=O)Nc3cc(Cl)ccc32)C12CCCCC2` (stereo unspecified) + Cc1c(S(C)(=O)=O)c(-c2cc(F)cc(N3CCN(c4ccc(NS(=O)(=O)c5ccc(NC(CCN6CCC(C(=O)OCCCP(=O)(O)O)CC6)CSc6ccccc6)c(S(=O)(=O)C(F)(F)F)c5)cc4)CC3)c2)c(-c2ccc(Cl)cc2)n1C(C)C, the IC50 (second compound 0.0316 µM) is reported as > 3 µM, the IC50 (second compound 0.1 µM) is reported as > 3 µM and the IC50 (second compound 0.316 µM) is reported as > 3 µM. For the same compound, the IC50 (second compound 1 µM) was > 3 µM, the IC50 (second compound 3.16 µM) was 1.87 µM and the IC50 (second compound 10 µM) was 1.18 µM. For the same compound, the viability, T/C (second compound 0.0316 µM, first compound 0.00949 µM) was 117%, the viability, T/C (second compound 0.0316 µM, first compound 0.03 µM) was 103% and the viability, T/C (second compound 0.0316 µM, first compound 0.0949 µM) was 88.5%. For the same compound, the viability, T/C (second compound 0.0316 µM, first compound 0.3 µM) was 101%, the viability, T/C (second compound 0.0316 µM, first compound 0.949 µM) was 98.8% and the viability, T/C (second compound 0.0316 µM, first compound 3 µM) was 93.8%. It also gave a viability, T/C (second compound 0.1 µM, first compound 0.00949 µM) of 110%, a viability, T/C (second compound 0.1 µM, first compound 0.03 µM) of 94.2% and a viability, T/C (second compound 0.1 µM, first compound 0.0949 µM) of 104%. For the same compound, the viability, T/C (second compound 0.1 µM, first compound 0.3 µM) was 101%, the viability, T/C (second compound 0.1 µM, first compound 0.949 µM) was 88.4% and the viability, T/C (second compound 0.1 µM, first compound 3 µM) was 81.8%. For the same compound, the viability, T/C (second compound 0.316 µM, first compound 0.00949 µM) was 89.4%, the viability, T/C (second compound 0.316 µM, first compound 0.03 µM) was 97.9% and the viability, T/C (second compound 0.316 µM, first compound 0.0949 µM) was 94.5%. The viability, T/C (second compound 0.316 µM, first compound 0.3 µM) was 87.1%, the viability, T/C (second compound 0.316 µM, first compound 0.949 µM) was 90% and the viability, T/C (second compound 0.316 µM, first compound 3 µM) was 65.3%. The viability, T/C (second compound 1 µM, first compound 0.00949 µM) was 95.3%, the viability, T/C (second compound 1 µM, first compound 0.03 µM) was 81.8% and the viability, T/C (second compound 1 µM, first compound 0.0949 µM) was 86.5%. It also gave a viability, T/C (second compound 1 µM, first compound 0.3 µM) of 80.3%, a viability, T/C (second compound 1 µM, first compound 0.949 µM) of 81.8% and a viability, T/C (second compound 1 µM, first compound 3 µM) of 54%. For the same compound, the viability, T/C (second compound 3.16 µM, first compound 0.00949 µM) was 70.6%, the viability, T/C (second compound 3.16 µM, first compound 0.03 µM) was 76.3% and the viability, T/C (second compound 3.16 µM, first compound 0.0949 µM) was 75.9%. For the same compound, the viability, T/C (second compound 3.16 µM, first compound 0.3 µM) was 69.4%, the viability, T/C (second compound 3.16 µM, first compound 0.949 µM) was 64.7% and the viability, T/C (second compound 3.16 µM, first compound 3 µM) was 40.1%. The viability, T/C (second compound 10 µM, first compound 0.00949 µM) was 71.7%, the viability, T/C (second compound 10 µM, first compound 0.03 µM) was 67% and the viability, T/C (second compound 10 µM, first compound 0.0949 µM) was 71.9%. For the same compound, the viability, T/C (second compound 10 µM, first compound 0.3 µM) was 62.1%, the viability, T/C (second compound 10 µM, first compound 0.949 µM) was 54.2% and the viability, T/C (second compound 10 µM, first compound 3 µM) was 34%.
